The target of assay [1] is T1, recombinant renin in human plasma (Homo sapiens, UniProt P00797).
T1 construct: purchased Proteos
T1 sequence (P00797 67-406): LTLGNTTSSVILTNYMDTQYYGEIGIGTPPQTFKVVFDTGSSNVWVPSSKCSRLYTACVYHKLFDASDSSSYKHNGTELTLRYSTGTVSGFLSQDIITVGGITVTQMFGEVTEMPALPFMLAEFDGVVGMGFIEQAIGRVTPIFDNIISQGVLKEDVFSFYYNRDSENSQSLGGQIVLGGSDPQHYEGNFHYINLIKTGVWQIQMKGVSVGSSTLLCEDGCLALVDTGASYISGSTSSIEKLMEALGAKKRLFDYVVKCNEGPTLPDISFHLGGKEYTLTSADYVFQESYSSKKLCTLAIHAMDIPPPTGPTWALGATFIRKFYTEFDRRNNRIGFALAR
The assay is described as follows: Inhibition of renin in human plasma (QFRET, plasma). The class given is biochemical. The note with it: human EDTA plasma with 1 nM recombinant renin added; 37° C., 1 hour. The method, boiled down:
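Cleared human EDTA plasma spiked with 1 nM recombinant renin. Compounds preincubated with the plasma for 10 min at 37 °C, then 6 µM internally quenched FAM peptide added (final 342 mM Tris pH 7.2, 23 mM EDTA) and incubated for 1 h at 37 °C. Fluorescence (490/520 nm) at 1 h minus t=0 gave IC50.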

For assay [2], the target named is T2, Human recombinant renin (Homo sapiens, UniProt P00797).
T2 construct: purchased Proteos
T2 sequence (P00797 67-406): T1 sequence (P00797 67-406)
Nature of the assay: Inhibition of human recombinant renin (QFRET, buffer). Type of assay: biochemical. As to conditions: buffer: 50 mM MOPS pH 7.4, 100 mM NaCl, 0.002% Tween 20; 37° C., 3 hours. The method, boiled down:
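Renin at […] final in 50 mM MOPS pH 7.4, 100 mM NaCl, 0.002% Tween 20, with compounds diluted 50-fold from DMSO and 6 μM internally quenched DNP peptide substrate. Incubation 3 h at 37 °C; fluorescence (ex 328/em 388 nm) at 3 h minus t=0 background; IC50 derived.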

`CC(=O)NCCc1ccccc1-c1onc([C@H]2CNCC[C@]2(O)c2ccc(F)c(F)c2)c1C(C)=O` [Structure 83]: the IC50 (usually the midpoint of a concentration-inhibition curve) in assay [1] worked out at 4.2 nM; in assay [2], 2.8 nM.
Take `CC(=O)NCCc1ccccc1-c1ccc([C@@H]2CNCC[C@H]2c2ccn(C)c(=O)c2)c(Cl)c1` [Structure 60]: the IC50 in assay [1] was 1350 nM; in assay [2], 710 nM.
Take `Cc1cc(-c2ccccc2COc2cccnc2)ccc1[C@H]1CNCC[C@@H]1c1cc(F)cc(F)c1` (racemic) [Structure 36]: the results for the IC50 in assay [1] and in assay [2] were 94 nM and 0.55 nM, respectively.
On to `COCCCc1cccc(C)c1-c1ccc([C@H]2CNCC[C@@H]2c2cccnc2)c(C)c1` (racemic) [Structure 12], for which the IC50 came out at 150 nM in assay [1] and 10 nM in assay [2].
In the same order, the values of `CC(=O)NCCc1ccccc1-c1ccc([C@H]2CNCC[C@@H]2c2cc(F)cc(F)c2)c(C)c1` [Structure 16] are 16 nM and 0.59 nM.
In the same order, the values of `CO[C@]1(c2ccc(F)c(F)c2)CCNC[C@@H]1c1noc(-c2ccccc2CCNC(C)=O)c1Br` [Structure 82] are 1.2 nM and 0.16 nM.
In the same order, the values of `Fc1ccc([C@@]2(F)CCNC[C@@H]2c2onc(-c3cccc(Cl)c3Cl)c2Br)cc1F` [Structure 77] are 7.9 nM and 0.25 nM.
On to `COCCCc1ccccc1-c1ccc([C@H]2CNCC[C@@H]2c2ccc(N)nc2)c(Cl)c1` (racemic) [Structure 52], for which the figures for the IC50 in assay [1] and in assay [2] were 1630 nM and 150 nM, respectively.
For `COC[C@H](C)COCc1ccc([C@@]2(O)CCNC[C@@H]2c2ccc(-c3ccccc3CCNC(C)=O)cc2Cl)cc1` [Structure 126] the same measures were 0.52 nM and 0.08 nM.
In the same order, the values of `CC(=O)NCCc1ccc(F)cc1-c1ccc([C@H]2CNCC[C@@H]2c2ccn(C)c(=O)c2)c(Cl)c1` (racemic) [Structure 65] are 6 nM and 6.5 nM.
